Results: patent US9221868B2, “Uridine di- or tri-phosphate derivatives and uses thereof” (BAR-ILAN UNIVERSITY, priority 2010, dated 2015)
“Also recorded” adds a separate entry of the source. Read-outs that look alike come from different tables or passages of the source.

Assays:
P2Y2-R [1] = target: T1, P2Y2-R (Homo sapiens, UniProt P41231); test: [Ca2+]i increase in 1321N1 astrocytoma cells expressing P2Y2-R; format: cell-based; design: expressed in transfected cells; host or cells: 1321N1 astrocytoma cells
Procedure: (§1) Green fluorescent protein (GFP) constructs of human P2Y2-R, P2Y4-R and P2Y6-R were expressed in 1321N1 astrocytoma cells, which lack endogenous expression of P2X- and P2Y-receptors. The respective cDNA of the receptor gene was cloned into a pEGFPN1 vector. After transfection using FuGENE 6 Transfection Reagent (Roche Molecular Biochemicals, Mannheim, Germany), the cells were selected with 0.5 mg/ml G418 (geneticine; Merck Chemicals, Darmstadt, Germany) and grown in Dulbecco's modified Eagles' medium (DMEM) supplemented with 10% fetal calf serum, 100 U/ml penicillin and […] at 37° C. and 5% CO2. The expression and cell membrane localization of the respective P2Y receptors was confirmed through the analysis of the GFP fluorescence. The functionality of the expressed GFP-labeled receptor in cells was verified by recording a change of [Ca^2+]i after stimulation with the appropriate receptor agonist.
(§2) 1321N1 astrocytoma cells transfected with the respective plasmid for P2YR-GFP expression plated on coverslips (22 mm diameter) and grown to approximately 80% density were incubated with 2 μM fura 2/AM and 0.02% pluronic acid in Na-HBS buffer (Hepes buffered saline: 145 mM NaCl, 5.4 mM KCl, 1.8 mM CaCl2, 1 mM MgCl2, 25 mM glucose, 20 mM Hepes/Tris pH 7.4) for 30 min at 37° C. The cells were superfused (1 ml/min, 37° C.) with different concentrations of nucleotide in Na-HBS buffer, and the nucleotide-induced change of [Ca^2+]i was measured by detecting the respective emission intensity of fura 2/AM at 510 nm with after 340 nm and 380 nm excitations (Ubl et al., 1998). The average maximal amplitude of the responses and the respective standard errors were calculated from the ratio of the fura 2/AM fluorescence intensities with excitations at 340 nm and 380 nm (only MT-labeled cells were analysed). Microsoft Excel (Microsoft Corp., Redmond, Wash., USA) and SigmaPlot (SPSS Inc., Chicago, Ill., USA) were used to derive the concentration-response curves and EC50 values from the average response amplitudes obtained in at least three independent experiments (Ecke et al., 2006, 2008). Only cells with a clear MT-signal and with the typical calcium response kinetics upon agonist pulse application were included in the data analysis. The GFP-tagged P2Y receptors are suitable for pharmacological and physiological studies, as previously reported (Tulapurkar et al., 2004, 2006; Zylberg et al., 2007).
(§3) In this study, analogues 13-17 were tested for their potency and selectivity at P2Y2,4,6-receptors based on measurements of increases in intracellular calcium concentrations in 1321N1 astrocytoma cells transfected with the respective plasmid, as described in Materials and Methods, and the results are summarized in Table 2.

P2Y4-R = target: T2, P2Y4-R (Homo sapiens, UniProt P51582); test: [Ca2+]i increase in 1321N1 astrocytoma cells expressing P2Y4-R; format: cell-based; details: n.d.r = no detectable response up to 100 μM
T2 construct: expressed in transfected cells; host or cells: 1321N1 astrocytoma cells
Procedure: as §1, §2, §3

P2Y6-R = target: T3, P2Y6-R (Homo sapiens, UniProt Q15077); test: [Ca2+]i increase in 1321N1 astrocytoma cells expressing P2Y6-R; format: cell-based; details: for EC50: 1321N1 astrocytoma cells, [Ca2+]i, read-out: Potencies (EC50) at the P2Y6-R; for Activity at the P2Y6-R (in words): 1321N1 cells
T3 construct: expressed in transfected cells; host or cells: 1321N1 astrocytoma cells
Procedure: as §1, §2
1321N1 cell lines stably expressing the human P2Y6 receptors were grown as previously described in DMEM (5% FBS, 100 IU/ml penicillin, 100 μg/ml streptomycin, 1× Glutamax, 10 mM Hepes and 0.5 mg/ml G-418) at 37° C. in a humidified atmosphere containing 5% CO2 and 95% air (Gendron et al., 2003).
1321N1 cells (10×10^6 cells grown in 10 cm^2 dishes) were harvested by a brief trypsin/EDTA treatment, suspended in complete culture medium, and washed by centrifugation for 3 min at 100×g before being incubated with 1 μM Fluo 4/AM in 4.5 ml HBSS with Ca^2+ and Mg^2+ (Wisent, St. Bruno, QC) for 25 min at 37° C. Cells were washed by centrifugation (100×g, 3 min), suspended in HBSS containing Ca^2+ and Mg^2+, and incubated for 25 min at 37° C. Cells were washed and suspended in 16 ml of FIBSS containing Ca^+ and Mg^2+. Cell suspension (2 ml) was gently stirred in a quartz cuvette while [Ca^2+]i and monitored on a RF-5301 PC Shimadzu spectrofluorometer with Panormama fluorescence 1.1 software (Man-Tech, Guelph, ON). Excitation wavelengths of 488 nm and emission wavelength of 520 nm were used to measure changes in intracellular Fluo 4 fluorescence intensity (F). At the end of each recording, maximal fluorescence (Fmax) and minimal fluorescence (Fmin) were determined by adding successively 0.1% Triton X-100 and 50 mM EDTA to cell suspensions. The following equation from Grynkiewicz et al. (1985) was used to relate the fluorescence intensity to Ca^2+ levels: [Ca^2+]=Kd×(F−Fmin)/(Fmax−F), wherein Kd is the Ca^+ dissociation constant of the indicator (345 nM). […]

[2] = system: intraocular pressure in normotense rabbits; details: cited from earlier work
P2Y2 receptor = P2Y2 receptor (Rattus norvegicus, UniProt P41232); details: compared to ATP and UTP; Tulapurkar et al., 2004; cited from earlier work
physchem = details: for Rate constant of phosphate ester hydrolysis at pH 1.4: pH 1.4, 37° C., pseudo-first-order
Procedure: All stability experiments were performed in duplicates.
The stability of UDP, 11, 12 and 13A in a buffer solution (pH 1.4) was evaluated by ^31P NMR at 37° C. for monitoring possible dephosphorylation products (the signal of the phosphate hydrolysis products is at ˜0 ppm, while that of the borano phosphate analogues is at ˜85 ppm). NMR spectra were recorded on a Bruker DMX-600 spectrometer with a ^31P NMR probe (isotope frequency of 240 MHz) using 85% H3PO4 as an external reference.
Sodium salts of UDP, 11, 12 and 13A were dissolved in 0.45 ml of KCl/HCl buffer (pH 1.4) and D2O (0.05 ml) was added. The final pH was adjusted to pH 1.4. pH measurements were performed with an Metrohm pH electrode and a Metrohm 827 meter. Spectra were recorded at 15 min, 1 h, or 24 h time intervals at 37° C. For experiments that were several days long, the solution was kept in an oil bath at 37° C. and spectra were recorded at ca. 24 h time intervals. The phosphate ester hydrolysis rate was determined by measuring the change of the integration of one of the phosphates signals of the starting material with time.

P2Y2-R [3] = target: T1, P2Y2-R; details: Ginsburg-Shmuel et al., 2010; read-out: EC50 at P2Y2-R (literature); cited from earlier work
[4] = 1321N1 astrocytoma cells, [Ca2+]i, n.d.r = no detectable response up to 100 μM

T2 sequence (P51582 whole entry): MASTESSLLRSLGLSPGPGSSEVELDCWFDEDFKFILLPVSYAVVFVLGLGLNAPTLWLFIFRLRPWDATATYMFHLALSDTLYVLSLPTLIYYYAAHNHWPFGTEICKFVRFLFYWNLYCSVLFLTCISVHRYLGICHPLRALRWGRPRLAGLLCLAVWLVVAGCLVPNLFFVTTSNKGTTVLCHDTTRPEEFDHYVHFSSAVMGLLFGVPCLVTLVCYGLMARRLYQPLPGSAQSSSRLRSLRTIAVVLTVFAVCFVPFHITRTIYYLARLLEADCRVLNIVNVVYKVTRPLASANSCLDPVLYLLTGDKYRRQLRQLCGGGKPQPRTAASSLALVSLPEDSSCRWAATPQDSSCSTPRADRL
T1 sequence (P41231 whole entry): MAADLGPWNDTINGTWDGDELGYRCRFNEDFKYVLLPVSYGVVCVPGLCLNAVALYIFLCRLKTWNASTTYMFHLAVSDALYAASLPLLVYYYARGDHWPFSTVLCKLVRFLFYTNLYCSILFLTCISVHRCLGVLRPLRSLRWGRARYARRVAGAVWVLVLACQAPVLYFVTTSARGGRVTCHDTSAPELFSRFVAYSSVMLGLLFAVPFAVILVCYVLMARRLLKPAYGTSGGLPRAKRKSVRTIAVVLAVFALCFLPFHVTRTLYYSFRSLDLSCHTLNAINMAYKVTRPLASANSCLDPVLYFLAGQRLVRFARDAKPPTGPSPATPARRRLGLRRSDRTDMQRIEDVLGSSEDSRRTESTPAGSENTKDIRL
T3 sequence (Q15077 whole entry): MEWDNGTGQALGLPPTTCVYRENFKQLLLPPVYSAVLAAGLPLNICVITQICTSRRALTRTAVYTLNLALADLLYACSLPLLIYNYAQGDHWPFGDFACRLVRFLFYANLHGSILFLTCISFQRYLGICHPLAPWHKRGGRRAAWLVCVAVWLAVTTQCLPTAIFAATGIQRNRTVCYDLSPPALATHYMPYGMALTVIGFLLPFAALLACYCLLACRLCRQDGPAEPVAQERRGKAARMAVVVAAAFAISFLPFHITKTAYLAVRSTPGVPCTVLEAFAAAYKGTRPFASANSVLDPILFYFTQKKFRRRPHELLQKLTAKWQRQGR
P2Y2 receptor, sequence (P41232 whole entry): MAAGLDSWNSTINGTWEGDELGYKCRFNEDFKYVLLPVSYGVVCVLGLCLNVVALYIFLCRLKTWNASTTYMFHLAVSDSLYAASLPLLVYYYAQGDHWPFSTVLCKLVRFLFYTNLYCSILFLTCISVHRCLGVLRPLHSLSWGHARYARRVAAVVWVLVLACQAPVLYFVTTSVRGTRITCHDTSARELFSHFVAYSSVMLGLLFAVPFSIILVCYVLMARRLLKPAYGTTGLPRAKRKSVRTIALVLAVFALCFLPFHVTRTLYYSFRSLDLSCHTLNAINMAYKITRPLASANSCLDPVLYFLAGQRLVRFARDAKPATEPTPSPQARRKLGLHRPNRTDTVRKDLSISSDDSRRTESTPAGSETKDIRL

Structure (SMILES) | Potencies (EC50) at the P2Y2-R (P2Y2-R [1]; [4]) | Potencies (EC50) at the P2Y4-R (P2Y4-R) | EC50 (P2Y6-R) [nM] | further results
[BH3-][P+](O)(OCC1OC(n2cc(OC)c(=O)[nH]c2=O)C(O)C1O)OP(=O)(O)O (single isomer, unassigned) [Analogue 13B, 5-methoxyuridine-5′-O-(α-boranodiphosphate)] | n.d.r | n.d.r | 4300 | 
[BH3-][P+](O)(OC[C@H]1O[C@@H](n2cc(OC)c(=O)[nH]c2=O)[C@H](O)[C@@H]1O)OP(=O)(O)OP(=O)(O)O (single isomer, unassigned) [Analogue 14A, 5-methoxyuridine-5′-O-(α-boranotriphosphate)] | n.d.r | n.d.r | 11200 ± 630 | 
[BH3-][P+](O)(OC[C@H]1O[C@@H](n2cc(OC)c(=O)[nH]c2=O)[C@H](O)[C@@H]1O)OP(=O)(O)OP(=O)(O)O (single isomer, unassigned) [Analogue 14B, 5-methoxyuridine-5′-O-(α-boranotriphosphate)] | n.d.r | n.d.r | 20100 ± 700 | 
[BH3-][P+](O)(OCC1OC(n2cc(OC)c(=O)[nH]c2=O)C(O)C1O)OP(=O)(O)OP(=O)(O)OCC1OC(n2cc(OC)c(=O)[nH]c2=O)C(O)C1O (single isomer, unassigned) [Analogue 16A, di-(5-OMe)-uridine 5′,5″-P^1,P^3,α-boranotriphosphate] | n.d.r | n.d.r | 60 | Less potent than mono-nucleotide counterpart 13A at P2Y6-R (P2Y6-R; ratio of EC50 values): about 9 times
[BH3-][P+](O)(OCC1OC(n2cc(OC)c(=O)[nH]c2=O)C(O)C1O)OP(=O)(O)OP(=O)(O)OCC1OC(n2cc(OC)c(=O)[nH]c2=O)C(O)C1O (single isomer, unassigned) [Analogue 16B, di-(5-OMe)-uridine 5′,5″-P^1,P^3,α-boranotriphosphate] | n.d.r | n.d.r | 2200 | 
CSc1nc(N)c2ncn([C@@H]3O[C@H](COP(=O)(O)OP(=O)(O)C(Cl)(Cl)P(=O)(O)O)[C@@H](O)[C@H]3O)c2n1 [2MeS-adenosine-β,γ-CCl2-5′-triphosphate] |  |  |  | Duration of effect on IOP (literature) [2]: about 5 hours; Reduction of IOP (literature) [2]: 32%; EC50 ([2]; read-out: EC50 of IOP reduction (literature)): 95.5 nM
BP(=O)(OC[C@H]1O[C@@H](n2cnc3c(N)ncnc32)[C@H](O)[C@@H]1O)OP(=O)(O)OP(=O)(O)O (stereo partly drawn) [ATP(α-B)] |  |  |  | Response at the P2Y2 receptor (in words, literature) (P2Y2 receptor): very weak response
[BH3-][P+](O)(OC[C@H]1O[C@@H](n2ccc(=O)[nH]c2=O)[C@H](O)[C@@H]1O)OP(=O)(O)O (stereo partly drawn) [Analogue 11, Uridine-5′-O-(α-boranodiphophate), reference compound] |  |  |  | Rate constant of phosphate ester hydrolysis at pH 1.4 (physchem): 1.14×10^−5 s^−1; Half-life in human blood serum: 21 h
BP(=O)(OCC1OC(n2cc(OC)c(=O)[nH]c2=O)C(O)C1O)OP(=O)(O)O (stereo not drawn) [Analogue 13, 5-methoxyuridine-5′-O-(α-boranodiphosphate)] |  |  |  | Half-life (t1/2) of hydrolysis at pH 1.4 (physchem; buffer, pH 1.4): 16.9 h; Rate constant of phosphate ester hydrolysis at pH 1.4 (physchem): 1.31×10^−5 s^−1
BP(=O)(OC[C@H]1O[C@@H](n2cc(OC)c(=O)[nH]c2=O)[C@H](O)[C@@H]1O)OP(=O)(O)OP(=O)(O)O (stereo partly drawn) [Analogue 14, 5-methoxyuridine-5′-O-(α-boranotriphosphate)] |  |  |  | Activity at the P2Y2-receptor (in words) (P2Y2-R [1]; 1321N1 cells): completely inactive; Activity at the P2Y6-R (in words) (P2Y6-R): hardly active
COc1cn([C@@H]2O[C@H](COP(=O)(O)OP(=O)(O)OP(=O)(O)OC[C@H]3O[C@@H](n4cc(OC)c(=O)[nH]c4=O)[C@H](O)[C@@H]3O)[C@@H](O)[C@H]2O)c(=O)[nH]c1=O [Analogue 15, di-(5-OMe)-uridine 5′,5″-P^1,P^3, triphosphate] | n.d.r | n.d.r | > 10000 | Activity at the P2Y6-R (in words) (P2Y6-R): least active P2Y6-R agonist; also recorded: weakest potency among the tested nucleotides
[BH3-][P+](O)(OP(=O)(O)OC[C@H]1O[C@@H](n2cc(OC)c(=O)[nH]c2=O)[C@H](O)[C@@H]1O)OP(=O)(O)OC[C@H]1O[C@@H](n2cc(OC)c(=O)[nH]c2=O)[C@H](O)[C@@H]1O [Analogue 17, di-(5-OMe)-uridine 5″5″-P^1,P^3,β-boranotriphosphate] | n.d.r | n.d.r | 200 | 
O=c1ccn([C@@H]2O[C@H](COP(=O)(O)OP(=O)(O)OP(=O)(O)O)[C@@H](O)[C@H]2O)c(=O)[nH]1 [UTP, reference compound] |  |  |  | EC50 (P2Y2-R [1]; 1321N1 astrocytoma cells, [Ca2+]i, n.d.r = no detectable response up to 100 μM, read-out: Potencies (EC50) at the P2Y2-R): 140 nM; EC50 (P2Y4-R; read-out: Potencies (EC50) at the P2Y4-R): 900 nM; EC50 (P2Y2-R [3]): 100 nM
